The nature of this data set: method code SF, from DOI: 10.1246/bcsj.55.1489. The settings on record: pH 7.0.

SMILES strings stand for the structures.

In turn, `COc1nc(C)cc(-n2[nH]c(C)cc2=O)n1` had a logD of 1.03. For `COc1cc(-n2c(=O)cc(C)n2C)nc(C)n1`, the pH-dependent lipophilicity (logD) stood at 0.7. The same measure for `Cc1cc(-n2c(=O)cc(C)n2C)nc(C)n1`: 0.24; for `COc1cc(C)nn1-c1ccncn1`: 0.5.

`COc1ccnc(-n2nc(C)cc2OC)n1` yielded a pH-dependent lipophilicity (logD) of 1.01. As for `COc1cc(C)n(-c2nc(C)cc(C)n2)n1`, the figure is 1.82. As to `COc1cc(-n2c(=O)cc(C)n2C)ncn1`, the logD came out at 0.3.

The compound `COc1cc(-n2c(C)cc(=O)n2C)nc(C)n1` came in with a logD of 0.38.

The compound `COc1cc(C)n(-c2ccncn2)n1` showed a logD of 2.21. Compound `COc1cc(-n2nc(C)cc2OC)ncn1` returned a logD of 1.53. Take `COc1cc(C)nn1-c1nc(C)cc(C)n1`: the logD was determined as 0.73. `COc1cc(-n2nc(C)cc2OC)nc(OC)n1`: the log distribution coefficient (logD) worked out at 1.86.

In turn, `Cc1cc(C)nc(-n2c(C)cc(=O)n2C)n1` returned a logD of 0.51.

By logD is commonly meant lipophilicity at a set pH, counting ionised and neutral species. Read a high logD as a more lipophilic compound.

The values above are taken from the SangsterLogP compilation.
